Data: article PMC6197257 (Scientific Reports, 2018)

Legend:
rat 11β-HSD2 = biological target: T1, rat 11β-HSD2 (Rattus norvegicus, UniProt P50233); experiment: in vitro 11β-HSD2 activity using rat kidney microsomes; type: biochemical
T1 construct: kidney microsome fractions were obtained from male Wistar rats (7-week-old); from tissue; host or cells: rat kidney microsome fraction (male Wistar rats)
T1 sequence (P50233 1-400): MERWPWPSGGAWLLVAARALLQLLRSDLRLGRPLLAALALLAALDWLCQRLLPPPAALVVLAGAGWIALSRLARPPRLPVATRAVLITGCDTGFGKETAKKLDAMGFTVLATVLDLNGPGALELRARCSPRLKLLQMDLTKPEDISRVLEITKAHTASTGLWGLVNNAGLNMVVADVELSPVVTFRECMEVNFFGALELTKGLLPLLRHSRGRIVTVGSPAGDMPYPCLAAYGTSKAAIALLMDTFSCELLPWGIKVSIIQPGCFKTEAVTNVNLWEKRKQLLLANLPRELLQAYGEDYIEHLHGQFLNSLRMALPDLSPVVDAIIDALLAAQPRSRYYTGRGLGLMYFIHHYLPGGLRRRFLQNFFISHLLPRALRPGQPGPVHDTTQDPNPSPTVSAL
Method: Assays were conducted as described by Diederich et al.[23] with slight modifications as described in our previous study. Briefly, kidney microsome fractions were obtained from male Wistar rats (7-week-old). The microsome fraction (1.0 mg protein) was then incubated at 37 °C for 30 min in a reaction mixture containing 50 nM [1,2,6,7-^3H] cortisol, 1 mM NAD^+, and samples in […] 0.1 M phosphate buffer (pH 6.0). The reaction was terminated by adding 250 µl EtOH containing 1.25 mg cortisol and 1.25 mg cortisone. A 10 µl aliquot of the solution was spotted onto a silica gel 60 F254 plate and was developed with chloroform:MeOH (9:1). Spots corresponding to cortisone (Rf value, 0.43) were detected under UV light, scraped into a scintillation vial containing Clear-sol®, and the radioactivity was measured using a liquid scintillation counter (Hitachi Aloka Medical, Tokyo, Japan). The IC50 was calculated from the least square regression line made from 3 points that crossed 50% of the control logarithmic concentration values.

rat kidney slices = experiment: uptake by rat kidney slices; type: in vitro ADME; conditions: pooled plasma of female EHBRs, pH 5.5, 2 h
Method: Female SD rats (9-week-old) were treated with urethane (1 g/kg, i.p.), and their kidneys were collected. After removal of the capsule, the kidneys were sliced at approximately 0.5-mm thickness in the frontal section of the organ, using a tissue slicer (Natsume Seisakusyo, Tokyo, Japan) and then cut at the renal hilus into two halves. The slices were pre-incubated at either 4 or 37 °C for 15 min in 24-well plates with 0.3 ml of the incubation medium (137 mM NaCl, 5.4 mM KCl, 0.95 mM CaCl2, 0.81 mM MgSO4, 0.44 mM KH2PO4, 0.25 mM Na2HPO4, 5.5 mM glucose, 10 mM MES, adjusted to pH 5.5). Five ml of pooled female EHBR plasma samples was lyophilized, and dissolved in 5 ml of the incubation medium. […] After washing with PBS three times, the kidney slices were homogenated in PBS using sonication, and the concentrations of protein were measured as mentioned above. […]
LC-ESI(+)MS/MS analysis was conducted at the following conditions: column, Scherzo SM-C18 (3 μm, 3 mm i.d. ×100 mm, Imtakt, Kyoto, Japan); mobile phase, (A) 5 mM AcNH4, (B) 125 mM AcNH4/acetonitrole 1:4, at a flow rate of 0.3 ml/min, with the following gradient profile: A:B = 50:50–0:100 (0–3 min) and 0:100 (3–10 min); compound 1 (5.8 min), astragaloside IV (3.0 min), GA (8.7 min); the transitions monitored were the same as described in the previous section. […]

CC1(C(=O)OC2OC(C(=O)O)C(O)C(O)C2O)CC(O)C2(C)CCC3(C)C(=CC(=O)C4C5(C)CCC(OS(=O)(=O)O)C(C)(C)C5CCC43C)C2C1 (stereo not drawn) [Compound 1, 22α-hydroxy-18β-glycyrrhetyl-3-O-sulfate-30-glucuronide]
potency on 11β-HSD2, times lower than that of 3MGA and GA (rat 11β-HSD2; IC50 of compound 1 compared with 3MGA and GA): about 10 times | IC50 (rat 11β-HSD2; kidney microsomes of male Wistar rats, 37 °C, 30 min): 2000 nM | uptake by kidney slices at 37 °C compared with 4 °C (rat kidney slices): significantly higher
